Measurements: PubChem BioAssay AID248 (DTP/NCI, 2004)
Inconclusive results and toxic doses are left out. Cut-off read from the data, not from the text of the source: active = T/C of 150% or more; inactive = T/C below 125%.

System: L1210 leukemia ip in BDF1 mice, survival T/C
Test: NCI In Vivo Anticancer Drug Screen. Data for tumor model L1210 Leukemia (intraperitoneal) in B6D2F1 (BDF1) mice
Details: endpoint: mean survival time, higher = longer survival
Procedure, shortened: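 Each compound was tested against a transplantable tumor grown in mice. The endpoint was survival, with treated animals benchmarked against vehicle controls as a simple ratio.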

[1] = dose: 100.0 mg/kg/injection, schedule: Q01DX009 (ip), vehicle: saline
[2] = dose: 100.0 mg/kg/injection, schedule: Q04DX003 (ip), vehicle: saline
[3] = dose: 200.0 mg/kg/injection, schedule: Q01DX009 (ip), vehicle: saline
[4] = dose: 200.0 mg/kg/injection, schedule: Q04DX003 (ip), vehicle: saline
[5] = dose: 400.0 mg/kg/injection, schedule: Q01DX009 (ip), vehicle: saline
[6] = dose: 400.0 mg/kg/injection, schedule: Q04DX003 (ip), vehicle: saline
[7] = dose: 100.0 mg/kg/injection, schedule: Q01DX001 (ip), vehicle: carboxymethylcellulose (CMC)
[8] = dose: 200.0 mg/kg/injection, schedule: Q01DX001 (ip), vehicle: carboxymethylcellulose (CMC)
[9] = dose: 400.0 mg/kg/injection, schedule: Q01DX001 (ip), vehicle: carboxymethylcellulose (CMC)
[10] = dose: 100.0 mg/kg/injection, schedule: Q04DX003 (ip), vehicle: Klucel (hydroxypropylcellulose) (HPC)
[11] = dose: 200.0 mg/kg/injection, schedule: Q04DX003 (ip), vehicle: Klucel (hydroxypropylcellulose) (HPC)
[12] = dose: 100.0 mg/kg/injection, schedule: Q04DX003 (ip), vehicle: saline with Tween-80
[13] = dose: 200.0 mg/kg/injection, schedule: Q04DX003 (ip), vehicle: saline with Tween-80
[14] = dose: 400.0 mg/kg/injection, schedule: Q04DX003 (ip), vehicle: saline with Tween-80

Measured: T/C

CC(=O)OCC(C)OC(C)=O (centres undefined)
inactive: [1] 98 % of control | [2] 106 % of control | [3] 95 % of control | [4] 97 % of control | [5] 92 % of control | [6] 97 % of control

C1=C(C2=CCCCC2)CCCC1
inactive: dose: 100.0 mg/kg/injection, schedule: Q01DX009 (ip), vehicle: acetone 108 % of control | [2] 112 % of control | dose: 200.0 mg/kg/injection, schedule: Q01DX009 (ip), vehicle: acetone 100 % of control | [4] 104 % of control | dose: 400.0 mg/kg/injection, schedule: Q01DX009 (ip), vehicle: acetone 108 % of control | [6] 96 % of control

O=P(NNc1ccccc1)(NNc1ccccc1)c1ccccc1
inactive: dose: 100.0 mg/kg/injection, schedule: Q01DX009 (ip), vehicle: carboxymethylcellulose (CMC) 90 % of control | dose: 200.0 mg/kg/injection, schedule: Q01DX009 (ip), vehicle: carboxymethylcellulose (CMC) 88 % of control | dose: 400.0 mg/kg/injection, schedule: Q01DX009 (ip), vehicle: carboxymethylcellulose (CMC) 92 % of control

CCOc1ccc(=O)[nH]n1
inactive: [1] 93 % of control | [2] 105 % of control | [3] 93 % of control | [4] 101 % of control | [5] 95 % of control | [6] 115 % of control

O=C(O)C1(O)c2ccccc2-c2ccc(Cl)cc21 (centres undefined)
inactive: dose: 50.0 mg/kg/injection, schedule: Q01DX001 (ip), vehicle: carboxymethylcellulose (CMC) 103 % of control | [7] 105 % of control | [8] 114 % of control | [9] 103 % of control

CCOC(=O)CCN(CC(C)C)C(=S)Nc1ccccc1
inactive: dose: 100.0 mg/kg/injection, schedule: Q01DX Z (ip), vehicle: methylcellulose (MC) 93 % of control

CCN(C(=S)c1ccc(OC)cc1)c1cccc(C)c1
inactive: dose: 75.0 mg/kg/injection, schedule: Q04DX003 (ip), vehicle: Klucel (hydroxypropylcellulose) (HPC) 94 % of control | dose: 100.0 mg/kg/injection, schedule: Q01DX001 (ip), vehicle: Klucel (hydroxypropylcellulose) (HPC) 103 % of control | dose: 150.0 mg/kg/injection, schedule: Q04DX003 (ip), vehicle: Klucel (hydroxypropylcellulose) (HPC) 111 % of control | dose: 200.0 mg/kg/injection, schedule: Q01DX001 (ip), vehicle: Klucel (hydroxypropylcellulose) (HPC) 97 % of control | dose: 300.0 mg/kg/injection, schedule: Q04DX003 (ip), vehicle: Klucel (hydroxypropylcellulose) (HPC) 100 % of control | dose: 400.0 mg/kg/injection, schedule: Q01DX001 (ip), vehicle: Klucel (hydroxypropylcellulose) (HPC) 96 % of control

COc1ccc(-c2cnc(=O)[nH]c2N)cc1
inactive: [10] 101 % of control | [11] 104 % of control

NCCOc1ccccn1
inactive: dose: 100.0 mg/kg/injection, schedule: Q04DX002 (ip), vehicle: saline 111 % of control | dose: 200.0 mg/kg/injection, schedule: Q04DX002 (ip), vehicle: saline 101 % of control | dose: 400.0 mg/kg/injection, schedule: Q04DX002 (ip), vehicle: saline 101 % of control

COc1cc(C(=O)O)c(Br)cc1C
inactive: dose: 100.0 mg/kg/injection, schedule: Q01DX009 (ip), vehicle: Klucel (hydroxypropylcellulose) (HPC) 111 % of control | [10] 103 % of control | dose: 200.0 mg/kg/injection, schedule: Q01DX009 (ip), vehicle: Klucel (hydroxypropylcellulose) (HPC) 103 % of control | [11] 93 % of control | dose: 400.0 mg/kg/injection, schedule: Q01DX009 (ip), vehicle: Klucel (hydroxypropylcellulose) (HPC) 98 % of control | dose: 400.0 mg/kg/injection, schedule: Q04DX003 (ip), vehicle: Klucel (hydroxypropylcellulose) (HPC) 95 % of control

CCC(=O)N(CC)CC
inactive: dose: 50.0 mg/kg/injection, schedule: Q01DX001 (ip), vehicle: saline 102 % of control | dose: 100.0 mg/kg/injection, schedule: Q01DX001 (ip), vehicle: saline 93 % of control | dose: 400.0 mg/kg/injection, schedule: Q01DX001 (ip), vehicle: saline 93 % of control

CC(C)=C1C2C=CC1C(C(=O)N(C)C)C2C(=O)N(C)C (centres undefined)
inactive: [1] 96 % of control | [2] 113 % of control | [3] 98 % of control | [4] 108 % of control | [5] 104 % of control | [6] 100 % of control

COc1ccc(C(O)c2ccccn2)cc1 (centres undefined)
inactive: [12] 90 % of control | [13] 98 % of control | [14] 95 % of control

c1cc[c]([Bi]([c]2ccccc2)[c]2ccccc2)cc1
inactive: dose: 50.0 mg/kg/injection, schedule: Q01DX001 (ip), vehicle: other 95 % of control | dose: 100.0 mg/kg/injection, schedule: Q01DX001 (ip), vehicle: other 97 % of control | [12] 97 % of control | dose: 200.0 mg/kg/injection, schedule: Q01DX001 (ip), vehicle: other 97 % of control | [13] 102 % of control | dose: 400.0 mg/kg/injection, schedule: Q01DX001 (ip), vehicle: other 97 % of control | [14] 103 % of control

Nc1nc(SCc2ccccc2)c2ncn(C3CCCC3)c2n1
inactive: [7] 95 % of control | [8] 95 % of control | [9] 92 % of control | dose: 700.0 mg/kg/injection, schedule: Q01DX015 (ip), vehicle: carboxymethylcellulose (CMC) 101 % of control | dose: 800.0 mg/kg/injection, schedule: Q01DX015 (ip), vehicle: carboxymethylcellulose (CMC) 101 % of control

OC(c1cccc(C(O)(C(F)(F)F)C(F)(F)F)c1)(C(F)(F)F)C(F)(F)F
inactive: dose: 5.0 mg/kg/injection, schedule: Q01DX001 (ip), vehicle: saline 97 % of control | dose: 10.0 mg/kg/injection, schedule: Q01DX001 (ip), vehicle: saline 92 % of control | dose: 20.0 mg/kg/injection, schedule: Q01DX001 (ip), vehicle: saline 100 % of control | dose: 40.0 mg/kg/injection, schedule: Q01DX001 (ip), vehicle: saline 93 % of control

C/C(=C\C(=O)O)c1ccc(-c2ccccc2)cc1
inactive: dose: 100.0 mg/kg/injection, schedule: Q01DX001 (ip), vehicle: saline with Tween-80 96 % of control | dose: 200.0 mg/kg/injection, schedule: Q01DX001 (ip), vehicle: saline with Tween-80 100 % of control | dose: 400.0 mg/kg/injection, schedule: Q01DX001 (ip), vehicle: saline with Tween-80 102 % of control

O=C1NC(=O)C(Cc2ccccc2)(Cc2ccccc2)C(=O)N1Cc1ccccc1
inactive: [7] 90 % of control | [8] 90 % of control | [9] 98 % of control

CC(C)(CCCO)c1ccccc1
inactive: dose: 50.0 mg/kg/injection, schedule: Q01DX009 (ip), vehicle: saline with Tween-80 96 % of control | dose: 100.0 mg/kg/injection, schedule: Q01DX009 (ip), vehicle: saline with Tween-80 104 % of control
